We go through five molecules from patent US8067638B2, “Amide derivative and insecticide containing the same” (Mitsui Chemicals, Inc., priority 2005, dated 2011).

A value given as a limit tells only on which side of the number the result lay.

By mortality is commonly meant the percentage killed. Low values mean more survivors, high ones fewer survivors.

Experiment [1] relates to Diamondback Moth (Plutella xylostella). The experiment can be described thus: Insecticidal test on diamondback moth (Plutella xylostella). The class given is in vivo. The following applies: 144 h, cabbage leaf immersed, second-instar larvae, counted 6 days after release, 25° C. As to the method:
Insecticidal Test on Diamondback Moth (Plutella xylostella)
A piece of cabbage leaf was immersed for 30 seconds in a liquid chemical prepared by diluting a test compound to a prescribed concentration. After air-drying, the piece was put into a 7-cm polyethylene cup and second-instar larvae of diamondback moths were released thereinto. The polyethylene cups were set in an isothermal chamber thermostated at 25° C. From the release 6 days later, the dead and alive were counted. The test was carried out with two replications of 5 insects per a plot.

For experiment [2], the system named is Common Cutworm (Spodoptera litura). In words: Insecticidal test on common cutworm (Spodoptera litura). The conditions noted are these: 144 h, cabbage leaf immersed, second-instar larvae, counted 6 days after release, 25° C. The experiment is classed as in vivo. As to the method:
Insecticidal Test on Common Cutworm (Spodoptera litura)
A piece of cabbage leaf was immersed for 30 seconds in a liquid chemical prepared by diluting a test compound to a prescribed concentration. After air-drying, the piece was put into a 7-cm polyethylene cup and second-instar larvae of common cutworms were released thereinto. The polyethylene cups were set in an isothermal chamber thermostated at 25° C. From the release 6 days later, the dead and alive were counted. The test was carried out with two replications of 5 insects per a plot.

With `Cc1cc(OS(=O)(=O)C(F)(F)F)cc(Br)c1NC(=O)c1cccc(NC(=O)c2ccccc2)c1` [Compound No. 1-369, N-(2-bromo-6-methyl-4-trifluoromethanesulfonyloxyphenyl) 3-(benzoylamino)benzamide], the mortality at 100 ppm in experiment [1] and in experiment [2] was at least 70% each time. Consider `O=C(Nc1cccc(C(=O)Nc2ccc(OC(C(F)(F)F)C(F)(F)F)nc2Br)c1)c1ccccc1` [Compound No. 1-387, N-[2-bromo-6-(2,2,2-trifluoro-1-trifluoromethylethoxy)-pyridin-3-yl]3-(benzoylamino)benzamide], for which the mortality at 100 ppm in experiment [1] and in experiment [2] was at least 70% throughout. For the molecule `O=C(Nc1c(Br)cc(OC(F)(F)C(F)C(F)(F)F)cc1Br)c1cccc(NC(=O)c2ccccc2F)c1` (stereo not drawn) [Compound No. 2-8, N-(2,6-dibromo-4-(1,1,2,3,3,3-hexafluoropropoxy)phenyl) 3-[(2-fluorobenzoyl)amino]benzamide], the mortality at 100 ppm in experiment [1] and in experiment [2] was at least 70% each time.

As for `Cc1cc(C(F)(C(F)(F)F)C(F)(F)F)cc(C)c1NC(=O)c1cccc(Nc2ccc([N+](=O)[O-])cc2)c1` [Compound No. 5-9, N-[2,6-dimethyl-4-(heptafluoroisopropyl)phenyl]-3-(4-nitrophenylamino)-benzamide], the mortality at 100 ppm in experiment [1] and in experiment [2] was at least 70% in each case.

`O=C(Nc1cccc(C(=O)Nc2ccc3ncsc3c2)c1)c1ccccc1` [Compound No. 1-492, N-benzothiazol-6-yl 3-(benzoylamino)benzamide] registered a mortality at 100 ppm in experiment [2] of at least 70%.
